Test results published in the NIST ThermoML archive (doi:10.1021/je050540h).
“And” between values parts separate entries of the source, which are not always exact repeats. Equal values may be shown once. ± gives the expanded uncertainty stated by the source.

Assays:
[1] = Liquid
[2] = xn = mol fraction of the nth substance listed; conditions: Liquid

CCC(C)O (centres undefined) [butan-2-ol]
[1], 101 kPa
Conditions	mass density [kg/m3]	speed of sound [m/s]	viscosity [mPa·s]
293.15 K	806.84 ± 0.47	1230 ± 3	3.623 ± 0.084
298.15 K	802.72 ± 0.48	1212 ± 3	2.995 ± 0.071
303.15 K	798.51 ± 0.48	1194 ± 3	2.493 ± 0.06

C1CCCCC1 [cyclohexane]
[1]
Conditions	mass density, 293.15 K [kg/m3]	mass density, 298.15 K [kg/m3]	mass density, 303.15 K [kg/m3]	speed of sound, 293.15 K [m/s]	speed of sound, 298.15 K [m/s]	speed of sound, 303.15 K [m/s]	viscosity, 293.15 K [mPa·s]	viscosity, 298.15 K [mPa·s]	viscosity, 303.15 K [mPa·s]
7 kPa	–	–	–	1279 ± 3	1254 ± 3	1230 ± 3	–	–	–
101 kPa	778.62 ± 0.48	773.92 ± 0.49	769.19 ± 0.49	1279 ± 3	1254 ± 3	1230 ± 3	0.968 ± 0.024	0.887 ± 0.022	0.816 ± 0.021

CCCC(C)O (centres undefined) [pentan-2-ol]
[1]
Conditions	mass density, 293.15 K [kg/m3]	mass density, 298.15 K [kg/m3]	mass density, 303.15 K [kg/m3]	speed of sound, 293.15 K [m/s]	speed of sound, 298.15 K [m/s]	speed of sound, 303.15 K [m/s]	viscosity, 293.15 K [mPa·s]	viscosity, 298.15 K [mPa·s]	viscosity, 303.15 K [mPa·s]
7 kPa	–	–	–	1250 ± 3	1232 ± 3	1214 ± 3	–	–	–
101 kPa	809.04 ± 0.47	805.01 ± 0.48	800.9 ± 0.48	1250 ± 3	1232 ± 3	1214 ± 3	4.001 ± 0.093	3.273 ± 0.077	2.774 ± 0.066

CCC(C)O (centres undefined) [butan-2-ol] + C1CCCCC1
[2], 101 kPa
Conditions	mass density, 293.15 K [kg/m3]	mass density, 298.15 K [kg/m3]	mass density, 303.15 K [kg/m3]	speed of sound, 293.15 K [m/s]	speed of sound, 298.15 K [m/s]	speed of sound, 303.15 K [m/s]	viscosity, 293.15 K [mPa·s]	viscosity, 298.15 K [mPa·s]	viscosity, 303.15 K [mPa·s]
x2 = 0	806.84 ± 0.47	802.72 ± 0.48	798.51 ± 0.48	1230 ± 3	1212 ± 3	1194 ± 3	3.623 ± 0.084	2.995 ± 0.071	2.493 ± 0.06
x2 = 0.0494	804.24 ± 0.47	800.04 ± 0.48	795.77 ± 0.49	1228 ± 3	1210 ± 3	1191 ± 3	3.231 ± 0.076	2.687 ± 0.064	2.251 ± 0.054
x2 = 0.1003	801.95 ± 0.47	797.69 ± 0.48	793.34 ± 0.49	1226 ± 3	1207 ± 3	1188 ± 3	2.915 ± 0.068	2.444 ± 0.058	2.066 ± 0.05
x2 = 0.1969	797.77 ± 0.48	793.37 ± 0.48	788.88 ± 0.49	1223 ± 3	1204 ± 3	1184 ± 3	2.227 ± 0.054	1.891 ± 0.046	1.623 ± 0.039
x2 = 0.3052	793.48 ± 0.48	788.95 ± 0.48	784.34 ± 0.49	1222 ± 3	1201 ± 3	1181 ± 3	1.726 ± 0.042	1.489 ± 0.036	1.294 ± 0.032
x2 = 0.4044	789.86 ± 0.48	785.24 ± 0.49	780.54 ± 0.49	1222 ± 3	1201 ± 3	1179 ± 3	1.48 ± 0.036	1.299 ± 0.032	1.142 ± 0.028
x2 = 0.5004	786.73 ± 0.48	782.04 ± 0.49	777.29 ± 0.49	1224 ± 3	1202 ± 3	1180 ± 3	1.315 ± 0.032	1.166 ± 0.029	1.042 ± 0.026
x2 = 0.6016	783.91 ± 0.48	779.18 ± 0.49	774.41 ± 0.49	1228 ± 3	1205 ± 3	1183 ± 3	1.16 ± 0.029	1.042 ± 0.026	0.942 ± 0.024
x2 = 0.7145	781.42 ± 0.48	776.68 ± 0.49	772.02 ± 0.5	1236 ± 3	1213 ± 3	1189 ± 3	1.066 ± 0.026	0.968 ± 0.024	0.888 ± 0.023
x2 = 0.8067	779.85 ± 0.48	775.08 ± 0.49	770.26 ± 0.5	1245 ± 3	1222 ± 3	1198 ± 3	0.98 ± 0.025	0.892 ± 0.023	0.817 ± 0.021
x2 = 0.9046	778.86 ± 0.48	774.06 ± 0.49	769.22 ± 0.49	1259 ± 3	1235 ± 3	1211 ± 3	0.962 ± 0.024	0.879 ± 0.022	0.806 ± 0.021
x2 = 0.9523	778.43 ± 0.48	773.65 ± 0.49	768.82 ± 0.49	1267 ± 3	1242 ± 3	1218 ± 3	0.993 ± 0.025	0.908 ± 0.023	0.833 ± 0.021

C1CCCCC1 [cyclohexane] + CCCC(C)O
[2], x1 = 1
Conditions	mass density, 293.15 K [kg/m3]	mass density, 298.15 K [kg/m3]	mass density, 303.15 K [kg/m3]	speed of sound, 293.15 K [m/s]	speed of sound, 298.15 K [m/s]	speed of sound, 303.15 K [m/s]	viscosity, 293.15 K [mPa·s]	viscosity, 298.15 K [mPa·s]	viscosity, 303.15 K [mPa·s]
7 kPa	–	–	–	1279 ± 3	1254 ± 3	1230 ± 3	–	–	–
101 kPa	778.62 ± 0.48	773.92 ± 0.49	769.19 ± 0.49	–	–	–	0.968 ± 0.024	0.887 ± 0.022	0.816 ± 0.021

C1CCCC1 [cyclopentane]
[1], 101 kPa
Conditions	mass density [kg/m3]	speed of sound [m/s]	viscosity
293.15 K	744.52 ± 0.65	1232 ± 3	0.438 ± 0.013 mPa·s and 0.439 ± 0.013 mPa·s
298.15 K	739.55 ± 0.65	1206 ± 3	0.416 ± 0.012 mPa·s
303.15 K	734.54 ± 0.66	1180 ± 3	0.394 ± 0.012 mPa·s

CC(C)O [propan-2-ol]
[1], 101 kPa
Conditions	mass density [kg/m3]	speed of sound [m/s]	viscosity [mPa·s]
293.15 K	785.07 ± 0.48	1156 ± 3	2.382 ± 0.056
298.15 K	780.87 ± 0.48	1139 ± 2	2.045 ± 0.049
303.15 K	776.6 ± 0.49	1121 ± 2	1.763 ± 0.043

C1CCCCC1 [cyclohexane] + CCC(C)O
[2], 101 kPa, x1 = 1
Conditions	mass density [kg/m3]	speed of sound [m/s]	viscosity [mPa·s]
293.15 K	778.62 ± 0.48	1279 ± 3	0.968 ± 0.024
298.15 K	773.92 ± 0.49	1254 ± 3	0.887 ± 0.022
303.15 K	769.19 ± 0.49	1230 ± 3	0.816 ± 0.021

C1CCCC1 [cyclopentane] + CCCC(C)O
[2], 101 kPa
Conditions	mass density, 293.15 K [kg/m3]	mass density, 298.15 K [kg/m3]	mass density, 303.15 K [kg/m3]	speed of sound, 293.15 K [m/s]	speed of sound, 298.15 K [m/s]	speed of sound, 303.15 K [m/s]	viscosity, 293.15 K [mPa·s]	viscosity, 298.15 K [mPa·s]	viscosity, 303.15 K [mPa·s]
x1 = 0.045	806.38 ± 0.48	802.28 ± 0.48	798.1 ± 0.49	1246 ± 3	1227 ± 3	1208 ± 3	3.573 ± 0.083	2.948 ± 0.07	2.459 ± 0.059
x1 = 0.103	802.8 ± 0.49	798.62 ± 0.49	794.35 ± 0.5	1239 ± 3	1220 ± 3	1200 ± 3	3.005 ± 0.071	2.509 ± 0.06	2.118 ± 0.051
x1 = 0.1878	797.38 ± 0.5	793.07 ± 0.51	788.68 ± 0.51	1229 ± 3	1209 ± 3	1189 ± 3	2.322 ± 0.056	1.969 ± 0.047	1.687 ± 0.041
x1 = 0.2924	790.57 ± 0.52	786.12 ± 0.53	781.6 ± 0.53	1218 ± 3	1198 ± 3	1177 ± 3	1.723 ± 0.042	1.491 ± 0.036	1.304 ± 0.032
x1 = 0.3906	783.89 ± 0.54	779.33 ± 0.55	774.71 ± 0.55	1209 ± 3	1188 ± 3	1167 ± 3	1.296 ± 0.032	1.148 ± 0.029	1.027 ± 0.026
x1 = 0.5117	775.68 ± 0.56	771.03 ± 0.57	766.32 ± 0.57	1201 ± 3	1179 ± 3	1157 ± 3	0.957 ± 0.025	0.87 ± 0.022	0.794 ± 0.021
x1 = 0.6242	768.16 ± 0.58	763.43 ± 0.59	758.63 ± 0.59	1197 ± 3	1175 ± 3	1152 ± 3	0.747 ± 0.02	0.694 ± 0.018	0.645 ± 0.017
x1 = 0.721	761.81 ± 0.6	756.98 ± 0.6	752.09 ± 0.61	1198 ± 3	1175 ± 3	1152 ± 3	0.629 ± 0.017	0.587 ± 0.016	0.548 ± 0.015
x1 = 0.8091	756.27 ± 0.61	751.36 ± 0.62	746.38 ± 0.62	1202 ± 3	1178 ± 3	1154 ± 3	0.552 ± 0.015	0.516 ± 0.015	0.487 ± 0.014
x1 = 0.9094	749.82 ± 0.63	744.82 ± 0.64	739.76 ± 0.64	1211 ± 3	1186 ± 3	1161 ± 3	0.482 ± 0.014	0.453 ± 0.013	0.428 ± 0.013
x1 = 0.9552	746.94 ± 0.64	741.92 ± 0.64	736.85 ± 0.65	1218 ± 3	1193 ± 3	1167 ± 3	0.455 ± 0.013	0.43 ± 0.013	0.407 ± 0.012
x1 = 1	744.52 ± 0.65	739.55 ± 0.65	734.54 ± 0.66	1232 ± 3	1206 ± 3	1180 ± 3	0.439 ± 0.013	0.416 ± 0.012	0.394 ± 0.012

CC(C)O [propan-2-ol] + C1CCCCC1
[2], 101 kPa, x2 = 0
Conditions	mass density [kg/m3]	speed of sound [m/s]	viscosity [mPa·s]
293.15 K	785.07 ± 0.48	1156 ± 3	2.382 ± 0.056
298.15 K	780.87 ± 0.48	1139 ± 2	2.045 ± 0.049
303.15 K	776.6 ± 0.49	1121 ± 2	1.763 ± 0.043
